Assay results published in patent US20090281025A1, “INHIBITION OF TUMOR GROWTH AND METASTASIS BY ATF2-DERIVED PEPTIDES” (Mount Sinai School Of Medicine of New York University, priority 2004, published 2009).
Several values for one entry are separate records, joined by “and”; a condition that tells them apart may be missing. Equal values may be shown once.

System: SW1 tumors
Experiment: cDNA microarray gene expression profiling of SW1 tumors
Format: in vivo, mouse
Excerpt: FIGS. 8A and 8B show gene profiling analysis of SW1 tumors expressing the ATF2^51-100 peptide. Tumors generated, in the absence or presence of a peptide, were used as source of mRNA for array analysis of 10K mouse genes (see Example 5). […] In all cases, the data represent analyses carried out 4 times from 4 different pools of tumors.
To elucidate the molecular pathways affected by expression of the ATF2^51-100 peptide, we used cDNA microarray analysis to compare the RNA expression profiles of SW1 tumors that express this peptide or a control vector (FIG. 8A). The 10k mouse Gem 2 gene set (Incyte Genomics Inc, Palo Alto, Calif.) was printed at the NCI on poly-L-lysine-coated glass using a Biorobotics TASII arrayer (Cambridge, England). All protocols for manufacturing and hybridization of microarrays are posted on the NCI web site (see, e.g., nciarray.nci.nih.gov). Approximately 20 μg of total RNA were used in the reverse transcription reaction to directly label the probe with Cy-5 dUTP or Cy-3 dUTP (Amersham). Hybridizations were performed at 65° C. for 12-18 h in a hybridization volume of 35 μL. The hybridized arrays were scanned using an Axon GenePix 4000 scanner (Union City, Calif.) and fluorescence data were collected using the GenePix software.
mRNA was prepared from a pool of 4 tumors obtained from two different experiments. In both cases, tumors were excised 2 weeks after subcutaneous injection of cells. Because the fluorescently labeled Cy dyes may incorporate into the reverse-transcribed cDNA with different efficiencies, RNA isolated from both cell types was always labeled with both combinations of Cy dyes. […] SW1 vector control cells were labeled with Cy-3 (F532) and the SW1-ATF 51-100 cells were labeled with Cy-5 (F635).

[1] = tumors expressing peptide vs control vector

Substance: ATF2^51-100: amino-terminal peptide of ATF2, amino acid residue 51 to 100 (about a 50 amino acid peptide), expressed in tumor cells (MTLKFGPARNDSVIVADQTPTPTRFLKNCEEVGLFNELASPFENEFKKAS; UniProt P15336 51-100, looked up, fragment)
- Ratio ATFp2-Cy5 vs parental control-Cy3: Mt2 (metallothionein 2) (down regulated, IMAGE: 334351, hybridizations #1-#4, listed as ATFp2): 0.3874 and 0.3888 and 0.4649 and 0.5780
- Ratio ATFp2-Cy5 vs parental control-Cy3: Hadh (hydroxyacyl-Coenzyme A dehydrogenase) (down regulated, IMAGE: 368571, hybridizations #1-#4, listed as ATFp2): 0.3738 and 0.3752 and 0.5471 and 0.6286
- Ratio ATFp2-Cy5 vs parental control-Cy3: Crabp1 (cellular retinoic acid binding protein I) (down regulated, IMAGE: 406272, hybridizations #1-#4, listed as ATFp2): 0.3248 and 0.361 and 0.3150 and 0.3569
- Ratio ATFp2-Cy5 vs parental control-Cy3: RIKEN cDNA 2900002K07 gene (down regulated, IMAGE: 516935, hybridizations #1-#4, listed as ATFp2): 0.3227 and 0.3239 and 0.2740 and 0.3014
- Ratio ATFp2-Cy5 vs parental control-Cy3: Ptk2 (PTK2 protein tyrosine kinase 2) (down regulated, IMAGE: 577544, hybridizations #1-#4, listed as ATFp2): 0.3803 and 0.3817 and 0.3913 and 0.4599
- Ratio ATFp2-Cy5 vs parental control-Cy3: Ifit1 (interferon-induced protein with tetratricopeptide repeats 1) (down regulated, IMAGE: 616653, hybridizations #1-#4, listed as ATFp2): 0.2354 and 0.2363 and 0.2637 and 0.3054
- Ratio ATFp2-Cy5 vs parental control-Cy3: ESTs (down regulated, IMAGE: 619632, hybridizations #1-#4, listed as ATFp2): 0.4707 and 0.4724 and 0.3928 and 0.6046
- Ratio ATFp2-Cy5 vs parental control-Cy3: Scya12 (small inducible cytokine A12) (down regulated, IMAGE: 620800, hybridizations #1-#4, listed as ATFp2): 0.2911 and 0.2922 and 0.3318 and 0.4279
- Ratio ATFp2-Cy5 vs parental control-Cy3: ESTs (down regulated, IMAGE: 621129, hybridizations #1-#4, listed as ATFp2): 0.4938 and 0.4955 and 0.3268 and 0.3091
- Ratio ATFp2-Cy5 vs parental control-Cy3: Casp6 (caspase 6) (down regulated, IMAGE: 636228, hybridizations #1-#4, listed as ATFp2): 0.3777 and 0.3791 and 0.4947 and 0.6368
- Ratio ATFp2-Cy5 vs parental control-Cy3: Igh-1 (immunoglobulin heavy chain 1 (serum IgG2a)) (down regulated, IMAGE: 636695, hybridizations #1-#4, listed as ATFp2): 0.3565 and 0.3578 and 0.4847 and 0.6503
- Ratio ATFp2-Cy5 vs parental control-Cy3: S100a9 (S100 calcium-binding protein A9 (calgranulin B)) (down regulated, IMAGE: 720190, hybridizations #1-#4, listed as ATFp2): 0.3486 and 0.3498 and 0.362 and 0.3547
- Ratio ATFp2-Cy5 vs parental control-Cy3: Jsp18 (ubiquitin specific protease 18) (down regulated, IMAGE: 751642, hybridizations #1-#4, listed as ATFp2): 0.3213 and 0.3225 and 0.2989 and 0.2958
- Ratio ATFp2-Cy5 vs parental control-Cy3: Plat (plasminogen activator, tissue) (down regulated, IMAGE: 836124, hybridizations #1-#4, listed as ATFp2): 0.4074 and 0.4089 and 0.4019 and 0.5488
- Ratio ATFp2-Cy5 vs parental control-Cy3: G0s2 (G0/G1 switch gene 2) (down regulated, IMAGE: 864447, hybridizations #1-#4, listed as ATFp2): 0.4421 and 0.4583 and 0.383 and 0.3949
- Ratio ATFp2-Cy5 vs parental control-Cy3: Xlr (X-linked lymphocyte-regulated complex) (down regulated, IMAGE: 1022928, hybridizations #1-#4, listed as ATFp2): 0.1598 and 0.1572 and 0.1540 and 0.1537
- Ratio ATFp2-Cy5 vs parental control-Cy3: Lgals7 (lectin galactose binding, soluble 7) (down regulated, IMAGE: 1023899, hybridizations #1-#4, listed as ATFp2): 0.4381 and 0.4397 and 0.4481 and 0.4781
- Ratio ATFp2-Cy5 vs parental control-Cy3: Mus musculus, clone MGC: 19199 IMAGE: 4236882, mRNA, complete cds (down regulated, IMAGE: 1037652, hybridizations #1-#4, listed as ATFp2): 0.4768 and 0.4785 and 0.4402 and 0.4792
- Ratio ATFp2-Cy5 vs parental control-Cy3: Isg15 (interferon-stimulated protein (15 kDa)) (down regulated, IMAGE: 1068714, hybridizations #1-#4, listed as ATFp2): 0.321 and 0.4337 and 0.4643 and 0.5141
- Ratio ATFp2-Cy5 vs parental control-Cy3: Ifit3 (interferon-induced protein with tetratricopeptide repeats 3) (down regulated, IMAGE: 1210036, hybridizations #1-#4, listed as ATFp2): 0.4750 and 0.4768 and 0.3824 and 0.3361
- Ratio ATFp2-Cy5 vs parental control-Cy3: Ensa (endosulfine alpha) (down regulated, IMAGE: 1278511, hybridizations #1-#4, listed as ATFp2): 0.4501 and 0.4517 and 0.4544 and 0.4479
- Ratio ATFp2-Cy5 vs parental control-Cy3: Myo5b (myosin Vb) (down regulated, IMAGE: 1378935, hybridizations #1-#4, listed as ATFp2): 0.2748 and 0.2758 and 0.2551 and 0.2439
- Ratio ATFp2-Cy5 vs parental control-Cy3: Mtap6 (microtubule-associated protein 6) (down regulated, IMAGE: 1430217, hybridizations #1-#4, listed as ATFp2): 0.3697 and 0.3710 and 0.5261 and 0.7243
- expression of Fas-associated genes [1]: down-regulation
- expression of growth-associated genes (epidermal growth factor, hepatoma-derived growth factor, insulin-like growth factor) and interferon-associated genes [1]: consistent down-regulation
- expression of tumor necrosis factor-related genes [1]: strongly upregulated
- Ratio ATFp2-Cy5 vs parental control-Cy3: Kifap3 (kinesin-associated protein 3) (upregulated, IMAGE: 331395, hybridizations #1-#4, listed as ATFp2): 2.1192 and 2.1268 and 2.9811 and 3.9220
- Ratio ATFp2-Cy5 vs parental control-Cy3: Hbb-b1 (hemoglobin, beta adult major chain) (upregulated, IMAGE: 332935, hybridizations #1-#4, listed as ATFp2): 3.1997 and 3.2112 and 2.7725 and 3.6146
- Ratio ATFp2-Cy5 vs parental control-Cy3: Hbb-b1 (hemoglobin, beta adult major chain) (upregulated, IMAGE: 518979, hybridizations #1-#4, listed as ATFp2): 2.8994 and 2.9099 and 2.4766 and 2.5621
- Ratio ATFp2-Cy5 vs parental control-Cy3: D0H4S114 (DNA segment, human D4S114) (upregulated, IMAGE: 535754, hybridizations #1-#4, listed as ATFp2): 3.0625 and 3.0736 and 4.2117 and 3.5432
- Ratio ATFp2-Cy5 vs parental control-Cy3: Scyb13 (small inducible cytokine subfamily B (Cys-X-Cys), member 13) (upregulated, IMAGE: 596683, hybridizations #1-#4, listed as ATFp2): 3.6935 and 3.7069 and 4.4104 and 4.1619
- Ratio ATFp2-Cy5 vs parental control-Cy3: C85356 (expressed sequence C85356) (upregulated, IMAGE: 776163, hybridizations #1-#4, listed as ATFp2): 6.2407 and 6.2633 and 5.4673 and 4.7632
- Ratio ATFp2-Cy5 vs parental control-Cy3: ESTs (upregulated, IMAGE: 809168, hybridizations #1-#4, listed as ATFp2): 2.6457 and 2.6552 and 2.6858 and 2.3889
- Ratio ATFp2-Cy5 vs parental control-Cy3: Mme (membrane metallo endopeptidase) (upregulated, IMAGE: 849871, hybridizations #1-#4, listed as ATFp2): 4.8477 and 4.8652 and 4.8096 and 4.5247
- Ratio ATFp2-Cy5 vs parental control-Cy3: Ogn (osteoglycin) (upregulated, IMAGE: 902951, hybridizations #1-#4, listed as ATFp2): 2.7606 and 2.7705 and 2.7398 and 2.3263
- Ratio ATFp2-Cy5 vs parental control-Cy3: RIKEN cDNA 1110068L01 gene (upregulated, IMAGE: 960604, hybridizations #1-#4, listed as ATFp2): 2.7162 and 2.7260 and 3.6427 and 3.9752
- Ratio ATFp2-Cy5 vs parental control-Cy3: Akr1c13 (aldo-keto reductase family 1, member C13) (upregulated, IMAGE: 1052178, hybridizations #1-#4, listed as ATFp2): 3.6319 and 3.6450 and 3.4859 and 3.4284
- Ratio ATFp2-Cy5 vs parental control-Cy3: Tna (tetranectin (plasminogen-binding protein)) (upregulated, IMAGE: 1068748, hybridizations #1-#4, listed as ATFp2): 5.0430 and 5.0612 and 4.9219 and 4.6123
- Ratio ATFp2-Cy5 vs parental control-Cy3: Top1 (topoisomerase (DNA) I) (upregulated, IMAGE: 1107479, hybridizations #1-#4, listed as ATFp2): 2.6799 and 2.6896 and 3.4635 and 3.3665
- Ratio ATFp2-Cy5 vs parental control-Cy3: Il1b (interleukin 1 beta) (upregulated, IMAGE: 1139544, hybridizations #1-#4, listed as ATFp2): 2.5423 and 2.5514 and 3.4806 and 3.3033
- Ratio ATFp2-Cy5 vs parental control-Cy3: Igfbp2 (insulin-like growth factor binding protein 2) (upregulated, IMAGE: 1277469, hybridizations #1-#4, listed as ATFp2): 3.2649 and 3.2767 and 3.3268 and 3.0043
- Ratio ATFp2-Cy5 vs parental control-Cy3: Igj (immunoglobulin joining chain) (upregulated, IMAGE: 1277614, hybridizations #1-#4, listed as ATFp2): 3.0715 and 3.0826 and 3.4986 and 4.0870
- Ratio ATFp2-Cy5 vs parental control-Cy3: Sp3 (trans-acting transcription factor 3) (upregulated, IMAGE: 1399769, hybridizations #1-#4, listed as ATFp2): 2.3816 and 2.3902 and 3.1712 and 3.6075
- Ratio ATFp2-Cy5 vs parental control-Cy3: Efemp1 (epidermal growth factor-containing fibulin) (upregulated, IMAGE: 1480170, hybridizations #1-#4, listed as ATFp2): 2.6354 and 2.6449 and 2.6270 and 2.3980
- Ratio ATFp2-Cy5 vs parental control-Cy3: Lum (lumican) (upregulated, IMAGE: 2101997, hybridizations #1-#4, listed as ATFp2): 2.5956 and 2.6050 and 2.6414 and 2.8732
